Experimental data from patent US20110294721A1, “ANTIMICROBIAL PEPTIDES” (priority 2008, published 2011).
Several values for one entry are separate records, joined by “and”; a condition that tells them apart may be missing. Equal entries are not always repeated. No end group written: not given here.

Legend:
[1] = system: Pseudomonas syringae pv. syringae; details: complete inhibition of bacterial growth; overnight 25° C.; Table 1
[2] = system: Pseudomonas syringae pv. tomato; details: complete inhibition of bacterial growth; overnight 25° C.; Table 1
Pseudomonas corrugata [3] = details: complete inhibition of bacterial growth; overnight 25° C.; Table 1
Alternaria alternata = assay: MIC in-vitro inhibition assay, antifungal (Example 2); type: cell-based; details: complete inhibition of spore germination/mycelial growth; Table 1
Experimental: (§1) In-vitro inhibition assays were performed in sterile flat-bottom 96-well plates (Greiner bio-one, Frickenhausen). Antimicrobial peptides were dissolved in 0.01% acetic acid containing 0.2% BSA (500 μg/ml), filter sterilized and stored at −20° C. For inhibition assays dilutions of peptides ranging from 5 to 200 μg/ml were prepared and 10 μl (antibacterial assay) or 20 μl (antifungal assay) of each concentration was loaded per well.
(§2) Spores of fungi were collected by water washes of sporulating cultures grown on 2% malt extract agar and spore concentration was determined by microscopy. The concentration of the spores was adjusted to 1.5-2×10^3 spores/ml in 2% malt extract medium and 80 μl of fungal spores were added per well. The final peptide concentrations used in the fungal inhibition assays were 0, 2, 4, 10, 20, 40, and 100 μg/ml. After overnight incubation at room temperature the plate were put on a rotary shaker (300 rpm) for further two days to ensure consistantly growth. Antifungal effects of the peptides were determined by a microplate reader (Altemaria, Fusarium) at OD590 nm or by visual screening of the plates (Bottytis, Cladosporium).
(§3) The lowest peptide concentration leading to complete inhibition of bacterial growth or spore germination/mycelial growth (minimal inhibition concentration, MIC) was determined for each organism-peptide combination. For each peptide concentration two identical inhibition assays were performed.

Botrytis cinerea = assay: as above; type: cell-based; details: complete inhibition of spore germination/mycelial growth; Table 1
Experimental: as §1, §2, §3

Cladosporium herbarum = assay: as above; type: cell-based; details: complete inhibition of spore germination/mycelial growth; Table 1
Experimental: as §1, §2, §3

Xanthomonas vesicatoria [4] = details: complete inhibition of bacterial growth; overnight 25° C.; Table 1
[5] = system: Pectobacterium carotovorum sub. carotovorum; details: complete inhibition of bacterial growth; overnight 25° C.; Table 1
[6] = system: Pseudomonas syringae pv. syringae; assay: MIC and lethal concentration (LC) assay (Example 3); type: cell-based; details: Table 2; for LC (lethal concentration): 100% inhibition after at least 4 days of incubation; for MIC: >90% inhibition, 1-2 days at 25° C.
Experimental: as §1
(§4) Bacteria colonies from overnight agar plate cultures were resuspended into 5 ml LB-medium or HPG-medium (OD600 nm=0.08-0.1) and diluted into LB-medium/HPG-medium (1:100). 90 μl of this suspension containing about 10^5-10^6 CFU/ml of tested bacteria were added to each well resulting in final peptide concentrations of 0, 0.5, 1, 2, 5, 10, and 20 μg/ml. […] The lowest concentration, in which there is no observable growth (>90% inhibition) is referred to as minimal inhibitory concentration (MIC). […] For each peptide concentration two identical inhibition assays were performed.

Xanthomonas vesicatoria [7] = assay: as above; type: cell-based; details: Table 2; for LC (lethal concentration): 100% inhibition after at least 4 days of incubation; for MIC: >90% inhibition, 1-2 days at 25° C.
Experimental: as §1, §4

[8] = system: Pseudomonas syringae pv. tomato; assay: as above; type: cell-based; details: Table 2; for LC (lethal concentration): 100% inhibition after at least 4 days of incubation; for MIC: >90% inhibition, 1-2 days at 25° C.
Experimental: as §1, §4

[9] = system: Clavibacter michiganensis; assay: as above; type: cell-based; details: Table 2; for LC (lethal concentration): 100% inhibition after at least 4 days of incubation; for MIC: >90% inhibition, 1-2 days at 25° C.
Experimental: as §1, §4

[10] = system: Pectobacterium carotovorum; assay: as above; type: cell-based; details: Table 2; for LC (lethal concentration): 100% inhibition after at least 4 days of incubation; for MIC: >90% inhibition, 1-2 days at 25° C.
Experimental: as §1, §4

Pseudomonas corrugata [11] = details: Table 2; for LC (lethal concentration): 100% inhibition after at least 4 days of incubation; for MIC: >90% inhibition, 1-2 days at 25° C.
Experimental: as §1, §4

HeLa cells (LC5-RIC) = type: cell-based, human
Experimental: (§5) Antimicrobial oligopeptides were dissolved in 0.01% acetic acid containing 0.2% BSA (500 μg/ml), filter sterilized and stored at −20° C. […] (in 5% CO2). Afterwards, virus particles were added to the pre-treated HeLa cells and the infection was quantified by measuring red fluorescence with a fluorescence microplate reader after 72 h incubation. The viability of the HeLa cells was determined by measuring the activity of the mitochondrial dehydrogenase according to Lindl and Bauer (1994) and Mosmann (1983).

[12] = system: human immundeficiency virus (HIV); type: cell-based; details: HeLa cells pre-treated 30 min at 37° C.; red fluorescence after 72 h; read-out: IC50, concentration where the infection is decreased by 50% (compared to non-treated controls)
Experimental: Cells were pretreated with 6.3 μg/ml SP13-3 and SP13-14 or buffer for 30 min at 37° C. before addition of virus particles. […] Shown is an overlay of pictures taken under transmitted light and fluorescence after 72 hours incubation. The viability of the HeLa cells was determined by measuring the activity of the mitochondrial dehydrogenase.
To measure the activity of the designed oligopeptides against human immundeficiency virus (HIV) a fluorescence-based reporter system was used. HeLa cells (LC5-RIC) harbour a reporter gene, which regulates in dependency of HIV Rev and Tat proteins the synthesis of a red fluorescing protein. In this way the infection of the HeLa cells (LC5-RIC) is indicated and the infection rate can be quantified using a fluorescence microplate reader.
as §5

Row | Substance | LC (lethal concentration) [6] | MIC [6] | LC (lethal concentration) (Xanthomonas vesicatoria [7]) | MIC (Xanthomonas vesicatoria [7]) | LC (lethal concentration) [8] | MIC [8] | LC (lethal concentration) [9] | MIC [9] | LC (lethal concentration) [10] | MIC [10] | LC (lethal concentration) (Pseudomonas corrugata [11]) | MIC (Pseudomonas corrugata [11]) | other results
1 | KRKLIFLAAFLAALALFKKR-NH2 [SP15] | – | – | – | – | – | – | – | – | – | – | – | – | Minimal inhibition concentration (MIC) [1]: >40 µg/mL; Minimal inhibition concentration (MIC) [2]: 40 µg/mL; Minimal inhibition concentration (MIC) (Pseudomonas corrugata [3]): >40 µg/mL; Minimal inhibition concentration (MIC) (Alternaria alternata): >100 µg/mL; Minimal inhibition concentration (MIC) (Botrytis cinerea): >100 µg/mL; Minimal inhibition concentration (MIC) (Cladosporium herbarum): 40 µg/mL; Minimal inhibition concentration (MIC) (Xanthomonas vesicatoria [4]): 20 µg/mL; Minimal inhibition concentration (MIC) [5]: >40 µg/mL
2 | KRRILIRILKLIIKLILKKR-NH2 [SP13-5] | >10/>10 μg/ml | >10/>10 μg/ml | 5.0 µg/mL | 1.0 µg/mL | 5.0 µg/mL | 2.5 µg/mL | > 10 µg/mL | 2.5 µg/mL | >10/>10 μg/ml | >10/>10 μg/ml | 10/>10 μg/ml | 10/>10 μg/ml | –
3 | KRRKAIKILKLIAKLIRKKR-NH2 [SP13-8] | >10/>10 μg/ml | >10/>10 μg/ml | 0.5 µg/mL | 0.1 µg/mL | 10/>10 μg/ml | 10/>10 μg/ml | 0.25 µg/mL | 0.1 µg/mL | >10/>10 μg/ml | >10/>10 μg/ml | 0.5 µg/mL | 0.25 µg/mL | –
4 | KRRKLAFRAFRFALKAVLKK-NH2 [SP13-13] | 0.5/0.5 μg/ml | 0.5/0.5 μg/ml | 0.5 µg/mL | 0.25 µg/mL | 5.0 µg/mL | 2.5 µg/mL | 2.5 µg/mL | 0.5 µg/mL | >10/>10 μg/ml | >10/>10 μg/ml | 1.0 µg/mL | 0.25 µg/mL | –
5 | KRRKLAFRLFRLFLKLVLKK-NH2 [SP13-14] | 10 µg/mL | 5.0 µg/mL | 2.5 µg/mL | 0.25 µg/mL | 5.0 µg/mL | 2.5 µg/mL | 2 to 5 µg/mL | 0.5 µg/mL | >10/>10 μg/ml | >10/>10 μg/ml | > 10 µg/mL | 2.5 µg/mL | negative/toxic effect on test cells (HeLa cells) (HeLa cells (LC5-RIC)): No negative/toxic effect; IC50 [12]: 1200 nM
6 | KRRKLIKILKLIAKLIRKKR-NH2 [SP13-7] | >10/>10 μg/ml | >10/>10 μg/ml | 0.25 µg/mL | 0.1 µg/mL | 10/>10 μg/ml | 10/>10 μg/ml | 0.5 µg/mL | 0.25 µg/mL | >10/>10 μg/ml | >10/>10 μg/ml | 2.5 µg/mL | 0.5 µg/mL | –
7 | KRRKLIKILKLIIKLIRKKR-NH2 [SP13-6] | 2.5 µg/mL | 1.0 µg/mL | 0.5 µg/mL | 0.1 µg/mL | 5.0 µg/mL | 2.5 µg/mL | 1.0 µg/mL | 0.1 µg/mL | >10/>10 μg/ml | >10/>10 μg/ml | – | 2.5 µg/mL | –
8 | KRRLALFRAFRLALKSVLKK-NH2 [SP13-10] | >10/>10 μg/ml | >10/>10 μg/ml | 0.25 µg/mL | 0.1 µg/mL | 1.0/1.0 μg/ml | 1.0/1.0 μg/ml | 0.25 µg/mL | 0.1 µg/mL | >10/>10 μg/ml | >10/>10 μg/ml | 0.5 µg/mL | 0.25 µg/mL | –
9 | KRRLALFRLFRLALKLVLKK-NH2 [SP13-11] | >10/>10 μg/ml | >10/>10 μg/ml | 5.0 µg/mL | 2.5 µg/mL | 5.0 µg/mL | 2.5 µg/mL | 2.5/2.5 μg/ml | 2.5/2.5 μg/ml | >10/>10 μg/ml | >10/>10 μg/ml | >10/>10 μg/ml | >10/>10 μg/ml | negative/toxic effect on test cells (HeLa cells) (HeLa cells (LC5-RIC)): No negative/toxic effect; IC50 [12]: 2100 nM
10 | KRRLFLFRLFRLFLRLFLKK-NH2 [SP13-12] | >10/>10 μg/ml | >10/>10 μg/ml | 5.0 µg/mL | 2.5 µg/mL | > 10 µg/mL | 5.0 µg/mL | 5.0 µg/mL | 2.5 µg/mL | >10/>10 μg/ml | >10/>10 μg/ml | 10/>10 μg/ml | 10/>10 μg/ml | –
11 | KRRLIARILRLAIRALVKKR-NH2 [SP13-1] | 2.5 µg/mL | 1.0 µg/mL | 1.0 µg/mL | 0.5 µg/mL | 5.0 µg/mL and > 10 µg/mL | 1.0 µg/mL | 2.5 µg/mL | 0.5 µg/mL | >10//>10 μg/ml | >10//>10 μg/ml | 2.5/2.5 μg/ml | 2.5/2.5 μg/ml | –
12 | KRRLIFRILKLFFRFLVKKR-NH2 [SP13-4] | 10/>10 μg/ml | 10/>10 μg/ml | 2.5/2.5 μg/ml | 2.5/2.5 μg/ml | >10/>10 μg/ml | >10/>10 μg/ml | 2.5 µg/mL | 1.0 µg/mL | >10/>10 μg/ml | >10/>10 μg/ml | > 10 µg/mL | 5.0 µg/mL | –
13 | KRRLILRILRLAIRALVKKR-NH2 [SP13-2] | 10 µg/mL | 5.0 µg/mL | 0.5 µg/mL | 0.25 µg/mL | 10/>10 μg/ml | 10/>10 μg/ml | 1.0 µg/mL | 0.25 µg/mL | >10/>10 μg/ml | >10/>10 μg/ml | 5.0/5.0 μg/ml | 5.0/5.0 μg/ml | –
